pEC50: −log10 of the molar value. Where two headings read alike, the source gives them in different places.
Assays:
[1] = system: strains of human rhinovirus (HRV); experiment: Antirhinoviral H1-HeLa cell culture assay (XTT cell protection, EC50), other HRV strains; assay type: cell-based, human rhinovirus in H1-HeLa cells; settings: read-out: EC50
How it was run: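 H1-HeLa cells infected, or mock-infected, were incubated with compounds for two days. Cell protection measured by XTT/PMS formazan absorbance at 450/650 nm; TI taken as CC50 divided by EC50.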

coxsackievirus B2 (CVB2) = experiment: Antiviral cell culture assay (EC50), coxsackievirus B2; assay type: cell-based; settings: Enterovirus B
[2] = Cytotoxicity (CC50), cell line not stated; assay type: cell-based
coxsackievirus B5 (CVB5) = experiment: Antiviral cell culture assay (EC50), coxsackievirus B5; assay type: cell-based; settings: Enterovirus B
H1-HeLa cells = experiment: Cytotoxicity (CC50) in mock-infected H1-HeLa cells, XTT dye reduction; assay type: cell-based, human
How it was run: (§1)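 H1-HeLa cells mock-infected, read by XTT/PMS formazan at 450/650 nm.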

[3] = as above; assay type: cell-based, human; settings: human, H1-HeLa cells, mock-infected; HRV-14
How it was run: as §1

HRV-14 = experiment: Antirhinoviral H1-HeLa cell culture assay (XTT cell protection, EC50), HRV-14; assay type: cell-based, human rhinovirus (HRV) serotype-14 in H1-HeLa cells; settings: Rhinovirus B, HRV14, H1-HeLa
How it was run: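 H1-HeLa cells were infected with HRV-14 at m.o.i. 0.13, or mock-infected, and incubated with compound for two days. Cell protection was read by XTT/PMS formazan absorbance at 450/650 nm to give EC50. CC50 came from mock-infected cells, and TI = CC50/EC50.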

[4] = target: T1, Recombinant rhinovirus 3C protease, serotype 14 (Human rhinovirus 14, UniProt P03303); experiment: Inhibition of rhinovirus 3C protease (FRET assay, kobs/[I]), serotype 14; assay type: biochemical; settings: pH 7.6; HRV-14 3C protease; read-out: kobs/[I] (3C protease inhibition activity)
T1 construct: Recombinant rhinovirus 3C proteases; made in house
T1 sequence (P03303 1538-1719): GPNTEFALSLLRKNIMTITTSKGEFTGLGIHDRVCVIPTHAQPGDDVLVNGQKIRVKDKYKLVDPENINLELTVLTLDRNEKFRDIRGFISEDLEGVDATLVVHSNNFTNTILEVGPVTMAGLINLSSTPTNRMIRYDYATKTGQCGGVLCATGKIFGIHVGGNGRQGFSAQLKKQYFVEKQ
How it was run: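 Enzyme-start FRET assay with ~1 μM DABCYL/EDANS peptide substrate and 50-100 nM recombinant protease in 50 mM tris pH 7.6, 1 mM EDTA, 2% DMSO. Cleavage followed as fluorescence increase; kobs/[I] derived from progress curves.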

echovirus 9 (ECHO-9) = experiment: Antiviral cell culture assay (EC50), echovirus 9; assay type: cell-based; settings: Enterovirus B; ECHO9

Question: With `CC[C@@H](C(=O)N[C@H](/C=C/C(=O)OC1CCC1)C[C@@H]1CCNC1=O)n1cccc(NC(=O)c2cc(C)on2)c1=O` [Compound 59, trans-(2′S,3′″″S,4S)-4-[2′-(3″-{[1′″-(5″″-Methylisoxazol-3″″-yl)methanoyl]amino}-2′″oxo-2′″H-pyridin-1′″-yl)butanoylamino]-5-(2′″″-oxopyrrolidin-3′″″-yl)pent-2-enoic Acid Cyclobutyl Ester] as the compound, how does the pEC50 ([1]; H1-HeLa, HRV-1A) read?
Answer: 7.08

Question: And the pEC50 ([1]; H1-HeLa, HRV-2)?
Answer: 7.31

Question: What about the pEC50 ([1]; H1-HeLa, HRV-23) of the same compound?
Answer: 7.43

Question: And the pEC50 ([1]; Human rhinovirus sp., H1-HeLa, HRV-Hanks)?
Answer: 7.08

Question: What about the pEC50 ([1]; Human rhinovirus sp., HRV3, H1-HeLa, HRV-3) of the same compound?
Answer: 7.48

Question: What about the pEC50 ([1]; Human rhinovirus sp., HRV9, H1-HeLa, HRV-9) of the same compound?
Answer: 7.15

Question: And the pEC50 ([1]; Human rhinovirus sp., HRV10, H1-HeLa, HRV-10)?
Answer: 7.24

Question: And the pEC50 ([1]; Human rhinovirus sp., HRV11, H1-HeLa, HRV-11)?
Answer: 7.85

Question: What about the pEC50 ([1]; Human rhinovirus sp., HRV13, H1-HeLa, HRV-13) of the same compound?
Answer: 7.92

Question: What about the pEC50 ([1]; Human rhinovirus sp., HRV16, H1-HeLa, HRV-16) of the same compound?
Answer: 6.98

Question: And the pEC50 ([1]; Human rhinovirus sp., HRV19, H1-HeLa, HRV-19)?
Answer: 7.36

Question: And the pEC50 ([1]; Human rhinovirus sp., HRV25, H1-HeLa, HRV-25)?
Answer: 7.38

Question: And the pEC50 ([1]; Human rhinovirus sp., HRV39, H1-HeLa, HRV-39)?
Answer: 6.91

Question: And the pEC50 ([1]; Human rhinovirus sp., HRV78, H1-HeLa, HRV-78)?
Answer: 7.14

Question: What about the pEC50 (coxsackievirus B2 (CVB2)) of the same compound?
Answer: 7.30

Question: What about the CC50 ([2]; CVB2) of the same compound?
Answer: > 10000 nM

Question: What about the CC50 ([2]; CVB5) of the same compound?
Answer: > 10000 nM

Question: And the CC50 ([2]; ECHO9)?
Answer: > 10000 nM

Question: What about the pEC50 (coxsackievirus B5 (CVB5)) of the same compound?
Answer: 7.40

Question: And the CC50 (H1-HeLa cells; HRV-1A)?
Answer: > 10000 nM

Question: And the CC50 (H1-HeLa cells; HRV-2)?
Answer: > 10000 nM

Question: What about the CC50 (H1-HeLa cells; HRV-3) of the same compound?
Answer: > 10000 nM

Question: What about the CC50 (H1-HeLa cells; HRV-9) of the same compound?
Answer: > 10000 nM

Question: And the CC50 (H1-HeLa cells; HRV-10)?
Answer: > 10000 nM

Question: And the CC50 (H1-HeLa cells; HRV-11)?
Answer: > 10000 nM

Question: What about the CC50 (H1-HeLa cells; HRV-13) of the same compound?
Answer: > 10000 nM

Question: What about the CC50 (H1-HeLa cells; HRV-16) of the same compound?
Answer: > 10000 nM

Question: What about the CC50 (H1-HeLa cells; HRV-19) of the same compound?
Answer: > 10000 nM

Question: What about the CC50 (H1-HeLa cells; HRV-23) of the same compound?
Answer: > 10000 nM

Question: And the CC50 (H1-HeLa cells; HRV-25)?
Answer: > 10000 nM

Question: And the CC50 (H1-HeLa cells; HRV-39)?
Answer: > 10000 nM

Question: And the CC50 (H1-HeLa cells; HRV-78)?
Answer: > 10000 nM

Question: What about the CC50 (H1-HeLa cells; HRV-Hanks) of the same compound?
Answer: > 10000 nM

Question: And the CC50 at 2 days [3]?
Answer: > 10000 nM

Question: And the pEC50 (HRV-14)?
Answer: 7.70

Question: What about the kinact/KI [4] of the same compound?
Answer: 170000 M⁻¹ s⁻¹

Question: What about the pEC50 (echovirus 9 (ECHO-9)) of the same compound?
Answer: 7.40

Reference: patent US6514997B2, “Antipicornaviral compounds and compositions, their pharmaceutical uses, and materials for their synthesis” (Agouron Pharmaceuticals, Inc., priority 1999, dated 2003)
